Source: ChEMBL document CHEMBL2016512, “Calcitonin gene-related peptide (CGRP) receptor antagonists: novel aspartates and succinates” (Bioorg Med Chem Lett, 2012)

Assays:
[1] = molecular target: T1, Calcitonin gene-related peptide type 1 receptor (Homo sapiens, UniProt O60894+Q16602); test: Displacement of [125]CGRP from human CGRP receptor expressed in human SK-N-MC cell membrane after 2 hrs by scintillation counting; assay type: cell membranes
[2] = molecular target: T1, Calcitonin gene-related peptide type 1 receptor; test: Antagonist activity at human CGRP receptor expressed in human SK-N-MC cells assessed as inhibition of CGRP-stimulated cAMP production; assay type: functional, cell-based
Caco-2 = test: Permeability across human Caco2 cells; assay type: ADME, cell-based
[3] = Solubility of the compound; assay type: physicochemical
[4] = Aqueous solubility of the compound; assay type: physicochemical; details: buffer

T1 sequence (Q16602 whole entry, one chain of several): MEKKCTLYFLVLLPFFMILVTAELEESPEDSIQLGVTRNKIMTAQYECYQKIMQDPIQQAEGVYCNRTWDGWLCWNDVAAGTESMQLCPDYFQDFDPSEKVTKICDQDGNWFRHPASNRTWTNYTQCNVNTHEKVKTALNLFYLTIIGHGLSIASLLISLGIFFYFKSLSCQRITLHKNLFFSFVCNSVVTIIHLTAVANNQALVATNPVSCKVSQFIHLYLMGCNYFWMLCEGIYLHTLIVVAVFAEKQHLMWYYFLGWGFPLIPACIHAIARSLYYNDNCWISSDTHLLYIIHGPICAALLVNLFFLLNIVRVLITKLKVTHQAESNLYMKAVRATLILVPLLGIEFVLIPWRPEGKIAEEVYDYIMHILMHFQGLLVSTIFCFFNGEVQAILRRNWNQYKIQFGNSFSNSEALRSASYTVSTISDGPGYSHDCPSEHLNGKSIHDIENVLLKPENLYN

Cc1nc(N[C@@H](CC(=O)N2CCC(N3Cc4ccccc4NC3=O)CC2)C(=O)N2CCC(N3CCCCC3)CC2)nc(N)c1[N+](=O)[O-]
IC50 [1]: 80 nM

Cc1cc(CC(CC(=O)N2CCC(N3Cc4ccccc4NC3=O)CC2)C(=O)N2CCCCC2)cc2cn[nH]c12 (racemic)
IC50 [1]: 3.7 nM | IC50 [2]: 6.9 nM

CC(C)(C)OC(=O)N[C@@H](CC(=O)N1CCC(N2Cc3ccccc3NC2=O)CC1)C(=O)N1CCC(N2CCCCC2)CC1
IC50 [1]: 590 nM

Cc1cc(CC(CC(=O)N2CCC3(CC2)OC(=O)Nc2ccccc23)C(=O)N2CCC3(CC2)OCCO3)cc2cn[nH]c12 (racemic)
IC50 [1]: 5.9 nM | IC50 [2]: 8.8 nM

Cc1cc(CC(CC(=O)N2CCC(N3Cc4cccc(F)c4NC3=O)CC2)C(=O)N2CCC(N3CCCCC3)CC2)cc2cn[nH]c12 (racemic)
IC50 [1]: 0.18 nM | IC50 [2]: 0.089 nM

O=C(C[C@H](Nc1ccc(Br)c2ccccc12)C(=O)N1CCC(N2CCCCC2)CC1)N1CCC(N2Cc3ccccc3NC2=O)CC1
IC50 [1]: 120 nM

O=C(C[C@H](NCc1ccccn1)C(=O)N1CCC(N2CCCCC2)CC1)N1CCC(N2Cc3ccccc3NC2=O)CC1
IC50 [1]: 700 nM

O=C(Nc1ccc(Cl)cc1Cl)N[C@@H](CC(=O)N1CCC(N2Cc3ccccc3NC2=O)CC1)C(=O)N1CCC(N2CCCCC2)CC1
IC50 [1]: 36 nM | permeability (Caco-2): impermeable | solubility [3]: Insoluble

O=C1Nc2ccccc2C2(CCN(C(=O)CC(Cc3ccc4[nH]ncc4c3)C(=O)N3CCC(N4CCCCC4)CC3)CC2)O1 (racemic)
IC50 [1]: 15 nM | IC50 [2]: 53 nM

Cc1cc(CC(CC(=O)N2CCC(N3Cc4ccccc4NC3=O)CC2)C(=O)N2CCC(N3CCCCC3)CC2)cc2cn[nH]c12 (racemic)
IC50 [1]: 0.074 nM | IC50 [2]: 0.068 nM

Cc1cc(C[C@H](CC(=O)N2CCC(N3Cc4cccc(F)c4NC3=O)CC2)C(=O)N2CCC(N3CCCCC3)CC2)cc2cn[nH]c12
IC50 [1]: 6.7 nM | permeability (Caco-2): impermeable | solubility [4]: Insoluble | IC50 [2]: 4.6 nM

O=C(C[C@H](Nc1cccc2ccccc12)C(=O)N1CCC(N2CCCCC2)CC1)N1CCC(N2Cc3ccccc3NC2=O)CC1
IC50 [1]: 220 nM

O=C(Nc1cccc(Cl)c1Cl)N[C@@H](CC(=O)N1CCC(N2Cc3ccccc3NC2=O)CC1)C(=O)N1CCC(N2CCCCC2)CC1
IC50 [1]: 97 nM | permeability (Caco-2): impermeable | solubility [3]: Insoluble

O=C(C[C@H](Nc1ccc2[nH]ccc2c1)C(=O)N1CCC(N2CCCCC2)CC1)N1CCC(N2Cc3ccccc3NC2=O)CC1
IC50 [1]: 180 nM | IC50 [2]: 59 nM

Cc1nc(N[C@@H](CC(=O)N2CCC(N3Cc4ccccc4NC3=O)CC2)C(=O)N2CCC(N3CCCCC3)CC2)nc2nn[nH]c12
IC50 [1]: 73 nM | IC50 [2]: 120 nM

Cc1cc(C[C@@H](CC(=O)N2CCC(N3Cc4cccc(F)c4NC3=O)CC2)C(=O)N2CCC(N3CCCCC3)CC2)cc2cn[nH]c12
IC50 [1]: 0.2 nM | permeability (Caco-2): impermeable | solubility [4]: Insoluble | IC50 [2]: 0.082 nM

O=C(Nc1ccccc1F)N[C@@H](CC(=O)N1CCC(N2Cc3ccccc3NC2=O)CC1)C(=O)N1CCC(N2CCCCC2)CC1
IC50 [1]: 45 nM | permeability (Caco-2): impermeable | solubility [3]: Insoluble

O=C(C[C@H](NC1CCC(O)CC1)C(=O)N1CCC(N2CCCCC2)CC1)N1CCC(N2Cc3ccccc3NC2=O)CC1 (stereo not given in full)
IC50 [1]: 4500 nM

O=C(C[C@H](Nc1cc(Cl)ncn1)C(=O)N1CCC(N2CCCCC2)CC1)N1CCC(N2Cc3ccccc3NC2=O)CC1
IC50 [1]: 98 nM | IC50 [2]: 46 nM

Cc1cc(C[C@H](CC(=O)N2CCC(N3Cc4ccccc4NC3=O)CC2)C(=O)N2CCC(N3CCCCC3)CC2)cc2cn[nH]c12
IC50 [1]: 11 nM | permeability (Caco-2): impermeable | solubility [4]: Insoluble | IC50 [2]: 11 nM

O=C(C[C@H](NCc1ccc2[nH]ncc2c1)C(=O)N1CCC(N2CCCCC2)CC1)N1CCC(N2Cc3ccccc3NC2=O)CC1
IC50 [1]: 130 nM | IC50 [2]: 300 nM

Cc1cc(CC(CC(=O)N2CCC3(CC2)OC(=O)Nc2ccccc23)C(=O)N2CCCCC2)cc2cn[nH]c12 (racemic)
IC50 [1]: 19 nM | IC50 [2]: 34 nM

O=C(C[C@H](Nc1ccncn1)C(=O)N1CCC(N2CCCCC2)CC1)N1CCC(N2Cc3ccccc3NC2=O)CC1
IC50 [1]: 1400 nM

O=C(C[C@H](Nc1ccc2[nH]ncc2c1)C(=O)N1CCC(N2CCCCC2)CC1)N1CCC(N2Cc3ccccc3NC2=O)CC1
IC50 [1]: 170 nM | IC50 [2]: 230 nM

O=C(C[C@H](Nc1cccc2ncccc12)C(=O)N1CCC(N2CCCCC2)CC1)N1CCC(N2Cc3ccccc3NC2=O)CC1
IC50 [1]: 890 nM

O=C(N[C@@H](CC(=O)N1CCC(N2Cc3ccccc3NC2=O)CC1)C(=O)N1CCC(N2CCCCC2)CC1)c1ccc(F)c(F)c1
IC50 [1]: 430 nM

Cc1cc(CC(CC(=O)N2CCC(N3Cc4ccccc4NC3=O)CC2)C(=O)N2CCC(C)CC2)cc2cn[nH]c12 (racemic)
IC50 [1]: 2.7 nM | IC50 [2]: 2 nM

O=C(CC(Cc1ccc2[nH]ncc2c1)C(=O)N1CCC2(CC1)OCCO2)N1CCC(N2Cc3ccccc3NC2=O)CC1 (racemic)
IC50 [1]: 87 nM | IC50 [2]: 320 nM

Cc1cc(C[C@@H](CC(=O)N2CCC(N3Cc4ccccc4NC3=O)CC2)C(=O)N2CCC(N3CCCCC3)CC2)cc2cn[nH]c12
IC50 [1]: 0.06 nM | permeability (Caco-2): impermeable | solubility [4]: Insoluble | IC50 [2]: 0.019 nM

O=C1Nc2ccccc2C2(CCN(C(=O)CC(Cc3ccc4[nH]ncc4c3)C(=O)N3CCC4(CC3)OCCO4)CC2)O1 (racemic)
IC50 [1]: 460 nM

Cc1cc(CC(CC(=O)N2CCC3(CC2)OC(=O)Nc2ccccc23)C(=O)N2CCC(N3CCCCC3)CC2)cc2cn[nH]c12 (racemic)
IC50 [1]: 0.33 nM | IC50 [2]: 0.7 nM

O=C(C[C@H](Nc1nc(Cl)nc2[nH]ncc12)C(=O)N1CCC(N2CCCCC2)CC1)N1CCC(N2Cc3ccccc3NC2=O)CC1
IC50 [1]: 250 nM | IC50 [2]: 99 nM

Cc1cc(CC(CC(=O)N2CCC(n3cc(-c4ccccc4)[nH]c3=O)CC2)C(=O)N2CCC(N3CCCCC3)CC2)cc2cn[nH]c12 (racemic)
IC50 [1]: 0.15 nM | IC50 [2]: 0.049 nM

O=C(Nc1ccccc1Cl)N[C@@H](CC(=O)N1CCC(N2Cc3ccccc3NC2=O)CC1)C(=O)N1CCC(N2CCCCC2)CC1
permeability (Caco-2): impermeable | IC50 [2]: 100 nM | solubility [3]: Insoluble

O=C(C[C@H](Nc1ccc(Cl)cc1[N+](=O)[O-])C(=O)N1CCC(N2CCCCC2)CC1)N1CCC(N2Cc3ccccc3NC2=O)CC1
IC50 [1]: 32 nM | IC50 [2]: 32 nM

Cc1cc(CC(CC(=O)N2CCC(c3cc4ccccc4[nH]c3=O)CC2)C(=O)N2CCC(N3CCCCC3)CC2)cc2cn[nH]c12 (racemic)
IC50 [1]: 0.3 nM | IC50 [2]: 0.12 nM

O=C(N[C@@H](CC(=O)N1CCC(N2Cc3ccccc3NC2=O)CC1)C(=O)N1CCC(N2CCCCC2)CC1)Oc1ccccc1
IC50 [1]: 280 nM

O=C(C[C@H](NCc1ccc2[nH]ccc2c1)C(=O)N1CCC(N2CCCCC2)CC1)N1CCC(N2Cc3ccccc3NC2=O)CC1
IC50 [1]: 380 nM

Cc1cc(CC(CC(=O)N2CCC(N3Cc4ccccc4NC3=O)CC2)C(=O)N2CCC3(CC2)OCCO3)cc2cn[nH]c12 (racemic)
IC50 [1]: 3.2 nM | IC50 [2]: 5.8 nM

Cc1cc(CC(CC(=O)N2CCC3(CC2)NC(=O)Nc2ccccc23)C(=O)N2CCC(N3CCCCC3)CC2)cc2cn[nH]c12 (racemic)
IC50 [1]: 0.34 nM | IC50 [2]: 0.35 nM
